We go through 24 compounds from PubChem BioAssay AID208 (DTP/NCI, 2004).

Each structure is given as a SMILES string. Several values for one entry are separate records, joined by “and”; a condition that tells them apart may be missing. Equal values may be shown once. Results filed as inconclusive are left out.

This assay concerns HT29 intrarenal xenograft, nude mice, tumor weight change. Description: NCI In Vivo Anticancer Drug Screen. Data for tumor model HT29;CX-1 Human Adenocarcinoma (MER+) (intrarenal inoculation) in NU/NU BALB/C (nude) mice. The conditions noted are these: endpoint: mean tumor weight change, higher = larger tumour. The protocol:
The antitumor activity of compounds was measured in mice bearing transplantable tumors. Survival or tumor size were measured and the results are expressed as the measurement made in the treated group (T) divided by the measurement made in the vehicle treated control group (C). The tumor model used in this assay is HT29;CX-1 Human Adenocarcinoma (MER+) (intrarenal inoculation) in NU/NU BALB/C (nude) mice

Setting [1] is: dose: 8.0 mg/kg/injection, schedule: Q04DX004 (sc), vehicle: saline.
Where [2] appears, read: dose: 16.0 mg/kg/injection, schedule: Q04DX004 (sc), vehicle: saline.
The mark [3] stands for this setting: dose: 75.0 mg/kg/injection, schedule: Q04DX004 (sc), vehicle: saline.
The mark [4] stands for this setting: dose: 300.0 mg/kg/injection, schedule: Q04DX004 (sc), vehicle: saline with Tween-80.
Setting [5] is: dose: 1200.0 mg/kg/injection, schedule: Q04DX004 (sc), vehicle: saline with Tween-80.
Where [6] appears, read: dose: 2400.0 mg/kg/injection, schedule: Q04DX004 (sc), vehicle: saline with Tween-80.

Regarding `CCCCCCCC(=O)OCC(=O)[C@]1(O)Cc2c(O)c3c(c(O)c2[C@@H](OC2CC(N)C(O)C(C)O2)C1)C(=O)c1c(OC)cccc1C3=O` (some centres undefined), the T/C was 63 % of control (dose: 2.0 mg/kg/injection, schedule: Q04DX004 (sc), vehicle: saline); 78 % of control (dose: 4.0 mg/kg/injection, schedule: Q04DX004 (sc), vehicle: saline); 48 % of control under setting [1]; 30 % of control under setting [2].
In the case of `Nc1nc2c(ncn2C2OC(CO)C(O)C2O)c(=O)[nH]1` (centres undefined), the T/C is 84 % of control (dose: 225.0 mg/kg/injection, schedule: Q04DX004 (sc), vehicle: saline with Tween-80); 96 % of control (dose: 450.0 mg/kg/injection, schedule: Q04DX004 (sc), vehicle: saline with Tween-80); 55 % of control (dose: 900.0 mg/kg/injection, schedule: Q04DX004 (sc), vehicle: saline with Tween-80); 100 % of control (dose: 1800.0 mg/kg/injection, schedule: Q04DX004 (sc), vehicle: saline with Tween-80).
Turning to `C=C(C)[C@@H]1CCc2c(O)c(O)c(=O)cc(C)c2C1`, the T/C under setting [3] was 192 % of control.
Regarding `CCCCCCCCCCCCCCCCCCOCC(COP(=O)([O-])OCC[N+](C)(C)C)OC` (centres undefined), the T/C (dose: 150.0 mg/kg/injection, schedule: Q04DX004 (sc), vehicle: saline) was 121 % of control.
As to `[Na+]`, the T/C runs as follows: (dose: 150.0 mg/kg/injection, schedule: Q04DX004 (ip), vehicle: water) 55 % of control; (dose: 300.0 mg/kg/injection, schedule: Q04DX004 (ip), vehicle: water) 70 % of control; (dose: 600.0 mg/kg/injection, schedule: Q04DX004 (ip), vehicle: water) 16 % of control; (dose: 1200.0 mg/kg/injection, schedule: Q04DX004 (ip), vehicle: water) 76 % of control.
As to `CN(CO)c1nc(N(C)CO)nc(N(C)CO)n1`, the T/C by setting is: (dose: 6.25 mg/kg/injection, schedule: Q01DX010 (sc), vehicle: saline) 100 % of control; (dose: 25.0 mg/kg/injection, schedule: Q01DX010 (sc), vehicle: saline) 92 % of control; (dose: 100.0 mg/kg/injection, schedule: Q01DX010 (sc), vehicle: saline) 6 % of control.
Regarding `Cc1c(N)nc(C(CC(N)=O)NCC(N)C(N)=O)nc1C(=O)NC(C(=O)NC(C)C(O)C(C)C(=O)NC(C(=O)NCCc1nc(-c2nc(C(=O)NCCCNC(C)c3ccccc3)cs2)cs1)C(C)O)C(OC1OC(CO)C(O)C(O)C1OC1OC(CO)C(O)C(OC(N)=O)C1O)c1cnc[nH]1` (centres undefined), the T/C runs as follows: (dose: 4.0 mg/kg/injection, schedule: Q01DX010 (sc), vehicle: saline) 11 % of control; (dose: 16.0 mg/kg/injection, schedule: Q01DX010 (sc), vehicle: saline) 25 % of control.
In the case of `CC[C@](O)(C(=O)O)c1cc2n(c(=O)c1CO)Cc1cc3ccccc3nc1-2`, the T/C (dose: 31.25 mg/kg/injection, schedule: Q04DX004 (sc), vehicle: saline) is 39 % of control.
Turning to `CNC1C(O)C(OC2C(N)CC(N)C(OC3OC(C(C)O)C(O)C(O)C3N)C2O)OCC1(C)O` (centres undefined), the T/C (dose: 50.0 mg/kg/injection, schedule: Q04DX004 (ip), vehicle: saline) was 102 % of control.
Take `COc1cc2c3c(cccc3c1)C(=O)N(CCN(C)C)C2=O`: the T/C runs as follows: (dose: 37.5 mg/kg/injection, schedule: Q04DX004 (sc), vehicle: saline with Tween-80) 72 % of control; (dose: 75.0 mg/kg/injection, schedule: Q04DX004 (sc), vehicle: saline with Tween-80) 98 % of control; (dose: 150.0 mg/kg/injection, schedule: Q04DX004 (sc), vehicle: saline with Tween-80) 74 % of control; under setting [4], 105 % of control.
Turning to `O=CC(NC(=O)N(CCCl)N=O)C(O)C(O)C(O)CO` (centres undefined), the T/C was 45 % of control (dose: 1.5 mg/kg/injection, schedule: Q01DX010 (sc), vehicle: Klucel (hydroxypropylcellulose) (HPC)); 42 % of control (dose: 3.0 mg/kg/injection, schedule: Q01DX010 (sc), vehicle: Klucel (hydroxypropylcellulose) (HPC)); 35 % of control (dose: 6.0 mg/kg/injection, schedule: Q01DX010 (sc), vehicle: Klucel (hydroxypropylcellulose) (HPC)).
Regarding `CCOC(=O)C(CC(C)C)NC(=O)C(Cc1ccc(N(CCCl)CCCl)cc1)NC(C)=O` (centres undefined), the T/C reads like this: (dose: 100.0 mg/kg/injection, schedule: Q01DX010 (sc), vehicle: saline with Tween-80) 46 % of control; (dose: 200.0 mg/kg/injection, schedule: Q01DX010 (sc), vehicle: saline with Tween-80) 2 % of control.
On to `OC1(CSc2ccccc2)CCCCC1`, for which the T/C was 65 % of control under setting [5] and 68 % of control under setting [6].
With `CC[C@@]1(O)C(=O)OCc2c1cc1n(c2=O)Cc2cc3cc(O)ccc3nc2-1`, the T/C was 2 % of control under setting [1]; -74 % of control under setting [2]; -92 % of control (dose: 32.0 mg/kg/injection, schedule: Q04DX004 (sc), vehicle: saline).
On to `O=C(Nc1cc(Cl)ccc1C(=O)O)c1cccc(C[n+]2ccccc2)c1`, for which the T/C was 100 % of control (dose: 150.0 mg/kg/injection, schedule: Q04DX004 (ip), vehicle: saline with Tween-80) and 123 % of control (dose: 300.0 mg/kg/injection, schedule: Q04DX004 (ip), vehicle: saline with Tween-80).
On to `COc1cccc2c1C(=O)c1c(O)c3c(c(O)c1C2=O)C[C@@](O)(/C(C)=N\O)C[C@@H]3OC1CC(N)C(O)C(C)O1` (some centres undefined), for which the T/C runs as follows: (dose: 12.5 mg/kg/injection, schedule: Q04DX004 (sc), vehicle: saline) 150 % of control; (dose: 25.0 mg/kg/injection, schedule: Q04DX004 (sc), vehicle: saline) 100 % of control; (dose: 50.0 mg/kg/injection, schedule: Q04DX004 (sc), vehicle: saline) 103 % of control.
For the compound `CN(C)CCOc1ccc2c(c1)C/C(=C/c1ncc([N+](=O)[O-])n1C)C2=O`, the T/C under setting [4] is 89 % of control; the T/C (dose: 600.0 mg/kg/injection, schedule: Q04DX004 (sc), vehicle: saline with Tween-80) is 33 % of control; the T/C under setting [5] is 69 % of control; the T/C under setting [6] is 65 % of control.
For the compound `OCC(O)C(O)C(O)C(O)CO` (centres undefined), the T/C (dose: 75.0 mg/kg/injection, schedule: Q04DX004 (ip), vehicle: saline) is 104 % of control; the T/C (dose: 150.0 mg/kg/injection, schedule: Q04DX004 (ip), vehicle: saline) is 115 % of control; the T/C (dose: 300.0 mg/kg/injection, schedule: Q04DX004 (ip), vehicle: saline) is 82 % of control; the T/C (dose: 600.0 mg/kg/injection, schedule: Q04DX004 (ip), vehicle: saline) was 90 % of control.
Regarding `CN=C(NC#N)NCCSCc1nc[nH]c1C`, the T/C was 75 % of control (dose: 225.0 mg/kg/injection, schedule: Q04DX004 (sc), vehicle: Klucel (hydroxypropylcellulose) (HPC)); 99 % of control (dose: 450.0 mg/kg/injection, schedule: Q04DX004 (sc), vehicle: Klucel (hydroxypropylcellulose) (HPC)); 92 % of control (dose: 900.0 mg/kg/injection, schedule: Q04DX004 (sc), vehicle: Klucel (hydroxypropylcellulose) (HPC)).
Consider `COC(=O)Nc1nc2ccc(SC)cc2c(=O)[nH]1`, for which the T/C by setting is: (dose: 300.0 mg/kg/injection, schedule: Q04DX004 (sc), vehicle: Klucel (hydroxypropylcellulose) (HPC)) 122 % of control; (dose: 600.0 mg/kg/injection, schedule: Q04DX004 (sc), vehicle: Klucel (hydroxypropylcellulose) (HPC)) 95 % of control; (dose: 1200.0 mg/kg/injection, schedule: Q04DX004 (sc), vehicle: Klucel (hydroxypropylcellulose) (HPC)) 48 % of control; (dose: 2400.0 mg/kg/injection, schedule: Q04DX004 (sc), vehicle: Klucel (hydroxypropylcellulose) (HPC)) 37 % of control.
For `CCC1OCC(C(Cl)CCl)O1` (centres undefined), the T/C is, setting by setting: (dose: 177.0 mg/kg/injection, schedule: Q01DX014 (sc), vehicle: other) 57 % of control and 75 % of control; (dose: 267.0 mg/kg/injection, schedule: Q01DX014 (sc), vehicle: other) 85 % of control; (dose: 600.0 mg/kg/injection, schedule: Q01DX014 (sc), vehicle: other) 61 % of control; (dose: 900.0 mg/kg/injection, schedule: Q01DX014 (sc), vehicle: Klucel (hydroxypropylcellulose) (HPC)) 10 % of control.
For the compound `CS(=O)(=O)OCCCNCCCOS(C)(=O)=O`, the T/C under setting [3] is 71 % of control.
As to `N=C(N)c1ccc(/C=C/c2ccc(C(=N)N)cc2O)cc1`, the T/C reads like this: (dose: 75.0 mg/kg/injection, schedule: Q04DX004 (sc), vehicle: water) 101 % of control; (dose: 150.0 mg/kg/injection, schedule: Q04DX004 (sc), vehicle: water) 86 % of control.
For `CO[C@H]1C[C@](C)(O)Cc2cc3c(c(O)c21)C(=O)c1c(O)cc2c(c1C3=O)O[C@@H]1O[C@@]2(C)[C@H](O)[C@@H](N(C)C)[C@@H]1O`, the T/C (dose: 6.25 mg/kg/injection, schedule: Q01DX010 (sc), vehicle: other) is 65 % of control and the T/C (dose: 12.5 mg/kg/injection, schedule: Q01DX010 (sc), vehicle: other) is 76 % of control.
